Measured values taken from US9713613B2, “Methods and compositions for the treatment of cancer and related hyperproliferative disorders” (priority 2007, dated 2017).

Assays:
endogenous SREBPs = test: Luciferase reporter assay (pSRE-Luc, normalized by β-gal) in HEK293 cells; type: cell-based, human; parameters: Luc/Gal: dose or concentration left out as unconfirmed
Method: On day 0, HEK293 cells were plated out in triplicate at a density of 5×10^3/well onto a 96-well plate in a Dulbecco's modified Eagle's medium with 10% fetal bovine serum, 100 units/mL penicillin, and 100 μg/mL streptomycin sulfate. On day 2, the cells were transiently co-transfected with the following plasmids by using Lipofectamine reagent (Invitrogen): 0.4 μg/well pSRE-Luc (an SRE-1-driven luciferase reporter construct; Hua et al., 1995 J Biol Chem 270, 29422-7), and 0.1 μg/well a b-gal reporter in which the expression of β-gal is controlled by an actin promoter in a final volume of […]. After incubation for 5 hrs at 37° C., the cells were washed with phosphate-buffered saline and then incubated in 100 μl of Dulbecco's modified Eagle's medium with 10% lipid-depleted serum, […] penicillin, and 100 μg/mL streptomycin sulfate in the absence or presence of fatostatin A. After 20 hrs of incubation, the cells in each well were lysed with 20 μL of 1× Reporter Lysis Buffer (Promega), and aliquots were used for measurement of luciferase (10 μL) and β-galactosidase (10 μL) activities. For luciferase assay, photon production was detected as counts per second in a Wallac 1420 ARVOsx multilabel counter (PerkinElmer). For β-galactosidase assays, hydrolysis of O-nitrophenyl-β-D-galactosidase was measured after incubation for 0.5 h at 37° C. by a microplate reader at the wave length of 405 nm (Tecan). The luciferase activity (counts per second) was normalized by the activity of β-galactosidase (OD units). For overexpression of the N-terminal matured form of SREBP-1c, pCMV-SREBP-1c (1-436) was co-transfected with pSRE-Luc. pSRE-Luc and pCMV-SREBP-1c (1-436) were provided by J. L. Goldstein (University of Texas Southwestern Medical Center). […]

3T3-L1 cells = test: adipogenesis assay (formation of oil droplets); type: cell-based, mouse; parameters: key: +: The analogues that completely inhibited the formation of oil droplets in cells were scored to be adipogenesis-inhibiting analogues; conditions: formation of oil droplets in cells
Method: The adipogenesis assay was performed as described (Choi et al., 2003).

[1] = entries 1-18 (FIG. 15), none = 9.4426
[2] = entries 1, 19-34 (FIG. 16), None = 15.0759
[3] = entries 1, 35-39 (FIG. 17), None = 18
[4] = entries 1, 40-44 (FIG. 17), None = 8.2181

`CCCc1cc(-c2nc(-c3ccc(Br)cc3)cs2)ccn1` [Compound 2, 4-(4-(4-bromophenyl)thiazol-2-yl)-2-propylpyridine] was tested, and the Luc/Gal (endogenous SREBPs; [1]) was 4.5130.

`CCCc1cc(-c2nc(-c3ccccc3)cs2)ccn1` [Compound 3, 4-(4-phenylthiazol-2-yl)-2-propylpyridine] was tested, and the Luc/Gal (endogenous SREBPs; [1]) was 7.4643.

In the case of `CCCc1cc(-c2nc(-c3ccc(Cl)cc3)cs2)ccn1` [Compound 4, 4-(4-(4-chlorophenyl)thiazol-2-yl)-2-propylpyridine], the Luc/Gal (endogenous SREBPs; [1]) is reported as 6.3808.

In the case of `CCc1ccc(-c2csc(-c3ccncc3)n2)cc1` [Compound 5, 4-(4-(4-ethylphenyl)thiazol-2-yl)pyridine], the Luc/Gal (endogenous SREBPs; [1]) is reported as 7.6190.

`Cc1ccc(-c2csc(-c3ccncc3)n2)cc1` [Compound 6, 4-(4-p-tolylthiazol-2-yl)pyridine] gave a Luc/Gal (endogenous SREBPs; [1]) of 13.4689.

With `COc1ccc(-c2csc(-c3ccncc3)n2)cc1` [Compound 7, 4-(4-(4-methoxyphenyl)thiazol-2-yl)pyridine] the Luc/Gal (endogenous SREBPs; [1]) was 18.3174.

In the case of `CCCc1cc(-c2nc(-c3ccc(OC(=O)c4ccccc4)cc3)cs2)ccn1` [Compound 8, 4-(2-(2-propylpyridin-4-yl)thiazol-4-yl)phenylbenzoate], the Luc/Gal (endogenous SREBPs; [1]) is reported as 7.7585 and the Inhibition of adipogenesis (3T3-L1 cells) is reported as “+”.

For `CCCc1cc(-c2nc(-c3ccc(O)cc3)cs2)ccn1` [Compound 9, 4-(2-(2-propylpyridin-4-yl)thiazol-4-yl)phenol], the Luc/Gal (endogenous SREBPs; [1]) was 14.5234 and the Inhibition of adipogenesis (3T3-L1 cells) was “+”.

Compound `CCCc1cc(-c2nc(-c3ccc(OCC(=O)OC)cc3)cs2)ccn1` [Compound 10, methyl 2-(4-(2-(2-propylpyridin-4-yl)thiazol-4-yl)phenoxy)acetate] has a Luc/Gal (endogenous SREBPs; [1]) of 10.7717.

`COc1ccc(-c2nc(-c3ccc(Cl)cc3)cs2)cc1OC` [Compound 12, 4-(4-chlorophenyl)-2-(3,4-dimethoxyphenyl)thiazole] showed a Luc/Gal (endogenous SREBPs; [1]) of 5.9214.

`CCCc1cc(-c2nc(-c3ccc(Cl)c(Cl)c3)cs2)ccn1` [Compound 13, 4-(4-(3,4-dichlorophenyl)thiazol-2-yl)-2-propylpyridine] was tested, and the Luc/Gal (endogenous SREBPs; [1]) was 5.2391.

Compound `CCCc1cc(-c2nc(-c3ccc(F)cc3)cs2)ccn1` [Compound 14, 4-(4-(4-fluorophenyl)thiazol-2-yl)-2-propylpyridine] has a Luc/Gal (endogenous SREBPs; [1]) of 9.6605.

Work on `CCCc1cc(-c2nc(-c3ccc(F)cc3F)cs2)ccn1` [Compound 15, 4-(4-(2,4-difluorophenyl)thiazol-2-yl)-2-propylpyridine] yielded a Luc/Gal (endogenous SREBPs; [1]) of 10.8383.

In the case of `CCCc1cc(-c2nc(-c3ccc(N)cc3)cs2)ccn1` [Compound 16, 4-(2-(2-propylpyridin-4-yl)thiazol-4-yl)benzenamine], the Luc/Gal (endogenous SREBPs; [1]) is reported as 10.3338 and the Inhibition of adipogenesis (3T3-L1 cells) is reported as “+”.

With `CCCc1cc(-c2nc(-c3ccc(NC(C)=O)cc3)cs2)ccn1` [Compound 18, N-(4-(2-(2-propylpyridin-4-yl)thiazol-4-yl)phenyl)acetamide] the Luc/Gal (endogenous SREBPs; [1]) was 11.7685 and the Inhibition of adipogenesis (3T3-L1 cells) was “+”.

For `CCCc1cc(-c2nc(-c3ccc(NCc4ccccc4)cc3)cs2)ccn1` [Compound 20, N-benzyl-4-(2-(2-propylpyridin-4-yl)thiazol-4-yl)benzenamine], the Luc/Gal (endogenous SREBPs; [2]) was 5.6748 and the Inhibition of adipogenesis (3T3-L1 cells) was “+”.

`CCCc1cc(-c2nc(-c3ccc(NCC4CC4)cc3)cs2)ccn1` [Compound 21, N-(cyclopropylmethyl)-4-(2-(2-propylpyridin-4-yl)thiazol-4-yl)benzenamine] was tested, and the Luc/Gal (endogenous SREBPs; [2]) was 6.4378 and the Inhibition of adipogenesis (3T3-L1 cells) was “+”.

`CCCc1cc(-c2nc(-c3ccc(Br)cc3)c(C(=O)O)s2)ccn1` [Compound 22, 4-(4-bromophenyl)-2-(2-propylpyridin-4-yl)thiazole-5-carboxylic acid] was tested, and the Luc/Gal (endogenous SREBPs; [2]) was 21.5911.

In the case of `CCCc1cc(-c2nc(-c3ccc(Br)cc3)c(C(=O)OC)s2)ccn1` [Compound 23, methyl 4-(4-bromophenyl)-2-(2-propylpyridin-4-yl)thiazole-5-carboxylate], the Luc/Gal (endogenous SREBPs; [2]) is reported as 8.1137 and the Inhibition of adipogenesis (3T3-L1 cells) is reported as “+”.

`CCCc1cc(-c2nc(-c3ccc(OC)cc3)cs2)ccn1` [Compound 24, 4-(4-(4-methoxyphenyl)thiazol-2-yl)-2-propylpyridine] gave a Luc/Gal (endogenous SREBPs; [2]) of 11.0367.

With `CCCc1cc(-c2nc(-c3cccc(OC)c3)cs2)ccn1` [Compound 25, 4-(4-(3-methoxyphenyl)thiazol-2-yl)-2-propylpyridine] the Luc/Gal (endogenous SREBPs; [2]) was 7.8536.

With `CCCc1cc(-c2nc(-c3ccccc3OC)cs2)ccn1` [Compound 26, 4-(4-(2-methoxyphenyl)thiazol-2-yl)-2-propylpyridine] the Luc/Gal (endogenous SREBPs; [2]) was 8.3046 and the Inhibition of adipogenesis (3T3-L1 cells) was “+”.

Work on `Cc1ccc(-c2csc(-c3ccccc3)n2)cc1` [Compound 27, 2-phenyl-4-p-tolylthiazole] yielded a Luc/Gal (endogenous SREBPs; [2]) of 13.8222.

With `CCCc1cc(-c2nc(-c3cccc(O)c3)cs2)ccn1` [Compound 28, 3-(2-(2-propylpyridin-4-yl)thiazol-4-yl)phenol] the Luc/Gal (endogenous SREBPs; [2]) was 12.7791.

`CCCc1cc(-c2nc(-c3ccccc3O)cs2)ccn1` [Compound 29, 2-(2-(2-propylpyridin-4-yl)thiazol-4-yl)phenol] showed a Luc/Gal (endogenous SREBPs; [2]) of 8.2379.

`CCCc1cc(-c2nc(-c3ccc(Br)cc3)c(C(=O)NC(C)C)s2)ccn1` [Compound 30, 4-(4-bromophenyl)-N-isopropyl-2-(2-propylpyridin-4-yl)thiazole-5-carboxamide] showed a Luc/Gal (endogenous SREBPs; [2]) of 16.0226.

`Clc1ccc(-c2csc(-c3ccncc3)n2)cc1` [Compound 31, 4-(4-(4-chlorophenyl)thiazol-2-yl)pyridine] gave a Luc/Gal (endogenous SREBPs; [2]) of 16.9971.

`CCc1cc(-c2nc(-c3ccc(Cl)cc3)cs2)ccn1` [Compound 32, 4-(4-(4-chlorophenyl)thiazol-2-yl)-2-ethylpyridine] was tested, and the Luc/Gal (endogenous SREBPs; [2]) was 9.5798.

Compound `Clc1ccc(-c2csc(-c3ccccc3)n2)cc1` [Compound 33, 4-(4-chlorophenyl)-2-phenylthiazole] has a Luc/Gal (endogenous SREBPs; [2]) of 17.8175.

`CCCc1cc(-c2nc(-c3cccs3)cs2)ccn1` [Compound 34, 2-propyl-4-(4-(thiophen-2-yl)thiazol-2-yl)pyridine] was tested, and the Luc/Gal (endogenous SREBPs; [2]) was 12.1593 and the Inhibition of adipogenesis (3T3-L1 cells) was “+”.

`CCCc1cc(-c2ccc(-c3ccc(C)cc3)cc2)ccn1` [Compound 35] was tested, and the Luc/Gal (endogenous SREBPs; [3]) was 11.36 and the Inhibition of adipogenesis (3T3-L1 cells) was “+”.

Compound `CCCc1cc(-c2nc(-c3ccc(C)cc3)c(C(=O)O)s2)ccn1` [Compound 36, 2-(2-propylpyridin-4-yl)-4-p-tolylthiazole-5-carboxylic acid] has a Luc/Gal (endogenous SREBPs; [3]) of 18.99.

`CCc1cc(-c2nc(-c3ccc(C)cc3)cs2)ccn1` [Compound 37, 2-ethyl-4-(4-p-tolylthiazol-2-yl)pyridine] was tested, and the Luc/Gal (endogenous SREBPs; [3]) was 9.87.

Work on `CCCc1cc(-c2nc(-c3ccccc3)c(C(=O)O)s2)ccn1` [Compound 38, 4-phenyl-2-(2-propylpyridin-4-yl)thiazole-5-carboxylic acid] yielded a Luc/Gal (endogenous SREBPs; [3]) of 22.66.

`CCCc1cc(-c2nc(-c3ccc(C)cc3)c(C(=O)OC)s2)ccn1` [Compound 39, methyl 2-(2-propylpyridin-4-yl)-4-p-tolylthiazole-5-carboxylate] was tested, and the Luc/Gal (endogenous SREBPs; [3]) was 14.93.

`CCCc1cc(-c2nc(-c3ccc(NC(=O)OC(C)(C)C)cc3)cs2)ccn1` [Compound 40, tert-butyl 4-(2-(2-propylpyridin-4-yl)thiazol-4-yl)phenylcarbamate] showed a Luc/Gal (endogenous SREBPs; [4]) of 2.4390.

`CCCc1cc(-c2nc(-c3ccc(NC4CCCCC4)cc3)cs2)ccn1` [Compound 41, N-cyclohexyl-4-(2-(2-propylpyridin-4-yl)thiazol-4-yl)benzenamine] was tested, and the Luc/Gal (endogenous SREBPs; [4]) was 6.5229.

`CCCc1cc(-c2nc(-c3ccc(NS(=O)(=O)c4ccc(C)cc4)cc3)cs2)ccn1` [Compound 42, 4-(2-(2-propylpyridin-4-yl)thiazol-4-yl)-N-tosylbenzenamine] was tested, and the Luc/Gal (endogenous SREBPs; [4]) was 3.3957.

For `CCCc1cc(-c2nc(-c3ccc(NS(=O)(=O)c4cccc5cccnc45)cc3)cs2)ccn1` [Compound 43, N-(4-(2-(2-propylpyridin-4-yl)thiazol-4-yl)phenyl)-8-quinolinesulfonamide], the Luc/Gal (endogenous SREBPs; [4]) was 2.8506.

Compound `CCCc1cc(-c2nc(-c3ccc(NS(=O)(=O)c4cccs4)cc3)cs2)ccn1` [Compound 44, N-(4-(2-(2-propylpyridin-4-yl)thiazol-4-yl)phenyl)-2-thiophenesulfonamide] has a Luc/Gal (endogenous SREBPs; [4]) of 1.8538.
